# Reference: publication PMC11011327 (International Journal of Molecular Sciences, 2024)
# Read-outs that look alike come from different tables or passages of the source. Residues, ends and D or L forms follow the SMILES beside them. No end group written: not given here.
# Assays:
# sTNFR1 = conditions: read-out: Kd value for the Tag7–sTNFR1 complex; "Previously, we showed"; cited from earlier work
# [1] = tested on: Tag7–Hsp70-induced cytotoxicity, L929 cells; test: Inhibition of cytotoxic activity of Tag7–Hsp70 complex on L929 cells; assay type: cell-based; conditions: Tag7–Hsp70 1 nM, peptide 10 nM, n = 5, complex preincubated with TNFR1 peptide / cells preincubated with TNFL; for apoptotic cytotoxic activity of Tag7–Hsp70 complex in the presence of peptide: 3 h; for necroptotic cytotoxic activity of Tag7–Hsp70 complex in the presence of peptide: 20 h
# Experimental: (§1) Next, we investigated how this interaction affects the cytotoxic activity of TNFR1 ligands. […] Cell apoptosis is a fast process of several hours. During necroptosis, cell death processes take place after a few dozen hours. Taking into account this ability of TNFR1 to participate in the induction of alternative cytotoxic pathways that develop at different time intervals, cytotoxic activity was determined after 3 h and after 20 h (Figure 4). […] It can be assumed that the inhibition of the cytotoxic effect of the ligands is associated with the competition of a 12-membered peptide with the cell surface receptor on for binding to the ligands.
# [2] = tested on: TNF-induced cytotoxicity, L929 cells; test: Inhibition of cytotoxic activity of TNF on L929 cells; assay type: cell-based; conditions: TNF 1 nM, peptide 10 nM, n = 5, TNF preincubated with TNFR1 peptide / cells preincubated with TNFL; for apoptotic cytotoxic activity of TNF in the presence of peptide: 3 h; for necroptotic cytotoxic activity of TNF in the presence of peptide: 20 h
# Experimental: as §1
# L929 cells [3] = test: Cytotoxic activity of TNF peptides on L929 cells; conditions: 20 h, n = 5, Cytotox 96 kit
# Experimental: (§2) The TNFR1 antibodies were added to the sum of TNFL and TNFS peptides prior to incubation (a). Cytotoxic activity of the sum of TNFL and TNFS peptides on L929 cells after 3 (b) and 20 (c) hours in the presence of caspase 3 and 8 inhibitors (5 μM) and necrostatin1 (5 μM) is shown. (d) Cytotoxic activity of the sum of TNFL and TNFs peptides on L929 cells after 20 h of incubation in the presence of calpains inhibitors (10 μM), cathepsins inhibitors (10 μM) and antioxidant (1 μM). n = 5 for each point, (* p-value < 0.05).
# (§3) L929 cells were cultured in DMEM with 2 mm L-glutamine and 10% FCS (Invitrogen, Carlsbad, CA, USA). This cell line was obtained from the cell line collection of the N. N. Blokhin National Medical Research Center of Oncology of the Ministry of Health of Russia.
# (§4) For cytotoxicity tests, target cells were cultured in 96-well plates (3 × 10^4 cells per well), and cytotoxic complexes were added (1 nM). Cytotoxicity was measured after 20 h of incubation by Cytotox 96 analysis kit (Promega, Madison, WI, USA) in accordance with the manufacturer’s protocol. […]
# L929 cells [4] = tested on: L929 cells
# Experimental: as §2, §3, §4
# tumor = conditions: ref [33]; cited from earlier work
# Description: Modifications of the TNF molecule are used to solve it.
# [5] = tested on: tumor cells / cancer cells; conditions: ref [33]; cited from earlier work
# Description: The amino acid sequence of Tag7 seemingly lacks a peptide fragment interacting with the second site of the receptor.
# Tag7 = target: T1, Tag7 (Homo sapiens, UniProt O75594); test: Microscale thermophoresis, binding to fluorescent-labeled Tag7; conditions: ratio to previously shown Kd of Tag7–sTNFR1 (42.2)
# T1 construct: His tag (inferred from the pQE-31 vector only); made in house; host or cells: E. coli M15 (pREP4)
# T1 sequence (O75594 22-196): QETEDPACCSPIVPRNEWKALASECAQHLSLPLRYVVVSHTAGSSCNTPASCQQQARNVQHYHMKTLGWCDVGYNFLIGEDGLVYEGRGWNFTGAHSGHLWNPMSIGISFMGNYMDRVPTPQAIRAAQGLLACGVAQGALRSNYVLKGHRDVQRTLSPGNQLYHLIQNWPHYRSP
# Description: The calculated Kd indicates a high affinity among the studied complexes (Table 1).
# Graphs are represented as Fnorm [‰] against ligand concentration. Data represent three independent experiments and were fitted to a Kd binding model assuming a 1:1 binding stoichiometry.
# Hsp70 and TNF-α were purified with Ni-NTA Agarose (Thermo Fisher Scientific, Waltham, MA, USA) in accordance with the manufacturer’s instructions.
# The samples were transferred to glass capillaries (Monolith NT Capillaries) and analyzed by microscale thermophoresis on a Nano-Temperature Monolith NT 115 device (30% IR laser power). The signal quality was monitored using a NanoTemper Monolith device to detect possible autofluorescence of the ligand, aggregation or changes in the rate of photobleaching. The experiments were carried out in at least three repetitions and processed using affinity analysis software (MO Control v.1.6.1, NanoTemper Technologies GmbH, München, Germany).
Compound,Kd (sTNFR1),apoptotic cytotoxic activity of Tag7–Hsp70 complex in the presence of peptide [1],necroptotic cytotoxic activity of Tag7–Hsp70 complex in the presence of peptide [1],apoptotic cytotoxic activity of TNF in the presence of peptide [2],necroptotic cytotoxic activity of TNF in the presence of peptide [2],cytotoxic activity (L929 cells [3]),cytotoxic activity (L929 cells [4]),inhibition of tumor growth / metastasis (tumor),killing of tumor cells [5],Kd of Tag7–TNFR1 peptide complex compared with Kd of Tag7–sTNFR1 complex (Tag7)
"Tag7: recombinant human Tag7, innate immunity protein, TNFR1 ligand",42.2 nM,–,–,–,–,–,–,–,–,–
YVLLTH [TNFS peptide],–,does not inhibit apoptosis nor necroptosis,does not inhibit apoptosis nor necroptosis,does not inhibit apoptosis nor necroptosis,does not inhibit apoptosis nor necroptosis,no cytotoxic effect,–,–,–,–
NPQAEGQLQWLNRRAN [TNFL peptide],–,Both apoptosis (3 h) and necroptosis (20 h) were inhibited,Both apoptosis (3 h) and necroptosis (20 h) were inhibited,Both apoptosis (3 h) and necroptosis (20 h) were inhibited,Both apoptosis (3 h) and necroptosis (20 h) were inhibited,–,no cytotoxic effect,–,–,–
"TNF peptide (aa. 150–170): TNF peptide (aa. 150–170), capable of killing tumor cells and inhibiting tumor growth (VLLTHTISRIAVSYQTKVNLL; UniProt P01375 150-170, looked up, fragment)",–,–,–,–,–,–,–,inhibiting tumor growth,capable of killing tumor cells,–
CC(C)C[C@H](NC(=O)[C@H](CS)NC(=O)[C@H](Cc1c[nH]cn1)NC(=O)[C@H](CCCNC(=N)N)NC(=O)[C@H](CC(C)C)NC(=O)[C@H](Cc1c[nH]cn1)NC(=O)[C@@H](N)CC(N)=O)C(=O)N[C@@H](CO)C(=O)N[C@@H](CS)C(=O)N[C@@H](CO)C(=O)N[C@@H](CCCCN)C(=O)N[C@@H](CS)C(=O)O [TNFR1 peptide] (H-NHLRHCLSCSKC-OH),–,completely lose both apoptotic and necroptotic activity,completely lose both apoptotic and necroptotic activity,completely lose both apoptotic and necroptotic activity,completely lose both apoptotic and necroptotic activity,–,–,–,–,approximately 10 times lower
